In paper PMC7385619, “A triple action CDK4/6-PI3K-BET inhibitor with augmented cancer cell cytotoxicity” (Cell Discovery, 2020):
Like-named read-outs stand apart in the source and are kept apart here.

Columns and labels:
Assay in all cases: KINOMEscan assay (Eurofins DiscoverX)
Type in all cases: binding
[1] = biological target: T1, kinome (kinase panel) (Homo sapiens, UniProt O14936); conditions: CASK; 1000 nM; read-out: Percent Control
T1 construct: purchased Eurofins DiscoverX

[2] = biological target: T2, kinome (kinase panel) (Homo sapiens, UniProt O15075); conditions: DCAMKL1 (Entrez DCLK1); 1000 nM; read-out: Percent Control
T2 construct: purchased Eurofins DiscoverX

[3] = biological target: T3, kinome (kinase panel) (Homo sapiens, UniProt O15146); conditions: MUSK; 1000 nM; read-out: Percent Control
T3 construct: purchased Eurofins DiscoverX

[4] = biological target: T4, kinome (kinase panel) (Homo sapiens, UniProt P00519, M351T); conditions: read-out: Percent Control
T4 construct: purchased Eurofins DiscoverX

[5] = biological target: T5, kinome (kinase panel) (Homo sapiens, UniProt P00519, T315I)
T5 construct: purchased Eurofins DiscoverX

[6] = biological target: T6, kinome (kinase panel) (Homo sapiens, UniProt P00533, G719S); conditions: […]; 1000 nM; read-out: Percent Control
T6 construct: purchased Eurofins DiscoverX

[7] = biological target: T7, kinome (kinase panel) (Homo sapiens, UniProt P07333); conditions: 1000 nM, read-out: Percent Control
T7 construct: purchased Eurofins DiscoverX

[8] = biological target: T8, kinome (kinase panel) (Homo sapiens, UniProt P07947); conditions: YES (YES1); 1000 nM; read-out: Percent Control
T8 construct: purchased Eurofins DiscoverX

[9] = biological target: T9, kinome (kinase panel) (Homo sapiens, UniProt P09769); conditions: FGR; 1000 nM; read-out: Percent Control
T9 construct: purchased Eurofins DiscoverX

[10] = biological target: T10, kinome (kinase panel) (Homo sapiens, UniProt P10721); conditions: 1000 nM, read-out: Percent Control
T10 construct: purchased Eurofins DiscoverX

[11] = biological target: T11, kinome (kinase panel) (Homo sapiens, UniProt P14616); conditions: INSRR; 1000 nM; read-out: Percent Control
T11 construct: purchased Eurofins DiscoverX

[12] = biological target: T12, kinome (kinase panel) (Homo sapiens, UniProt P22455); conditions: FGFR4; 1000 nM; read-out: Percent Control
T12 construct: purchased Eurofins DiscoverX

[13] = biological target: T13, kinome (kinase panel) (Homo sapiens, UniProt P31152); conditions: ERK4 (Entrez MAPK4); 1000 nM; read-out: Percent Control
T13 construct: purchased Eurofins DiscoverX

[14] = biological target: T14, kinome (kinase panel) (Homo sapiens, UniProt P36894); conditions: BMPR1A; 1000 nM; read-out: Percent Control
T14 construct: purchased Eurofins DiscoverX

[15] = biological target: T15, kinome (kinase panel) (Homo sapiens, UniProt P51813); conditions: BMX; 1000 nM; read-out: Percent Control
T15 construct: purchased Eurofins DiscoverX

[16] = biological target: T16, kinome (kinase panel) (Homo sapiens, UniProt Q02750); conditions: MEK1 (Entrez MAP2K1); 1000 nM; read-out: Percent Control
T16 construct: purchased Eurofins DiscoverX

[17] = biological target: T17, kinome (kinase panel) (Homo sapiens, UniProt Q13164); conditions: ERK5 (Entrez MAPK7); 1000 nM; read-out: Percent Control
T17 construct: purchased Eurofins DiscoverX

[18] = biological target: T18, kinome (kinase panel) (Homo sapiens, UniProt Q13177); conditions: PAK2; 1000 nM; read-out: Percent Control
T18 construct: purchased Eurofins DiscoverX

[19] = biological target: T19, kinome (kinase panel) (Homo sapiens, UniProt Q15569); conditions: TESK1; 1000 nM; read-out: Percent Control
T19 construct: purchased Eurofins DiscoverX

[20] = biological target: T20, kinome (kinase panel) (Homo sapiens, UniProt Q15831); conditions: LKB1 (Entrez STK11); 1000 nM; read-out: Percent Control
T20 construct: purchased Eurofins DiscoverX

[21] = biological target: T21, kinome (kinase panel) (Homo sapiens, UniProt Q15835); conditions: GRK1; 1000 nM; read-out: Percent Control
T21 construct: purchased Eurofins DiscoverX

[22] = biological target: T22, kinome (kinase panel) (Homo sapiens, UniProt Q6PHR2); conditions: ULK3; 1000 nM; read-out: Percent Control
T22 construct: purchased Eurofins DiscoverX

[23] = biological target: T23, kinome (kinase panel) (Homo sapiens, UniProt Q86UE8); conditions: TLK2; 1000 nM; read-out: Percent Control
T23 construct: purchased Eurofins DiscoverX

[24] = biological target: T24, kinome (kinase panel) (Homo sapiens, UniProt Q8TDX7); conditions: NEK7; 1000 nM; read-out: Percent Control
T24 construct: purchased Eurofins DiscoverX

[25] = biological target: T25, kinome (kinase panel) (Homo sapiens, UniProt Q92630); conditions: DYRK2; 1000 nM; read-out: Percent Control
T25 construct: purchased Eurofins DiscoverX

[26] = biological target: T26, kinome (kinase panel) (Homo sapiens, UniProt Q96GD4); conditions: AURKB; 1000 nM; read-out: Percent Control
T26 construct: purchased Eurofins DiscoverX

[27] = biological target: T27, kinome (kinase panel) (Homo sapiens, UniProt Q9C098); conditions: DCAMKL3 (Entrez DCLK3); 1000 nM; read-out: Percent Control
T27 construct: purchased Eurofins DiscoverX

[28] = biological target: T28, kinome (kinase panel) (Homo sapiens, UniProt Q9H2G2); conditions: SLK; 1000 nM; read-out: Percent Control
T28 construct: purchased Eurofins DiscoverX

[29] = biological target: T29, kinome (kinase panel) (Homo sapiens, UniProt Q9H3Y6); conditions: SRMS; 1000 nM; read-out: Percent Control
T29 construct: purchased Eurofins DiscoverX

[30] = biological target: T30, kinome (kinase panel) (Homo sapiens, UniProt Q9UPE1); conditions: SRPK3; 1000 nM; read-out: Percent Control
T30 construct: purchased Eurofins DiscoverX

[31] = biological target: T31, kinome (kinase panel) (Homo sapiens, UniProt Q9Y243); conditions: AKT3; 1000 nM; read-out: Percent Control
T31 construct: purchased Eurofins DiscoverX

[32] = biological target: T32, kinome (kinase panel) (Mycobacterium tuberculosis, UniProt P9WI81); conditions: PKNB(M.tuberculosis) (Entrez pknB); 1000 nM; read-out: Percent Control
T32 construct: purchased Eurofins DiscoverX

T10 sequence (P10721 26-976): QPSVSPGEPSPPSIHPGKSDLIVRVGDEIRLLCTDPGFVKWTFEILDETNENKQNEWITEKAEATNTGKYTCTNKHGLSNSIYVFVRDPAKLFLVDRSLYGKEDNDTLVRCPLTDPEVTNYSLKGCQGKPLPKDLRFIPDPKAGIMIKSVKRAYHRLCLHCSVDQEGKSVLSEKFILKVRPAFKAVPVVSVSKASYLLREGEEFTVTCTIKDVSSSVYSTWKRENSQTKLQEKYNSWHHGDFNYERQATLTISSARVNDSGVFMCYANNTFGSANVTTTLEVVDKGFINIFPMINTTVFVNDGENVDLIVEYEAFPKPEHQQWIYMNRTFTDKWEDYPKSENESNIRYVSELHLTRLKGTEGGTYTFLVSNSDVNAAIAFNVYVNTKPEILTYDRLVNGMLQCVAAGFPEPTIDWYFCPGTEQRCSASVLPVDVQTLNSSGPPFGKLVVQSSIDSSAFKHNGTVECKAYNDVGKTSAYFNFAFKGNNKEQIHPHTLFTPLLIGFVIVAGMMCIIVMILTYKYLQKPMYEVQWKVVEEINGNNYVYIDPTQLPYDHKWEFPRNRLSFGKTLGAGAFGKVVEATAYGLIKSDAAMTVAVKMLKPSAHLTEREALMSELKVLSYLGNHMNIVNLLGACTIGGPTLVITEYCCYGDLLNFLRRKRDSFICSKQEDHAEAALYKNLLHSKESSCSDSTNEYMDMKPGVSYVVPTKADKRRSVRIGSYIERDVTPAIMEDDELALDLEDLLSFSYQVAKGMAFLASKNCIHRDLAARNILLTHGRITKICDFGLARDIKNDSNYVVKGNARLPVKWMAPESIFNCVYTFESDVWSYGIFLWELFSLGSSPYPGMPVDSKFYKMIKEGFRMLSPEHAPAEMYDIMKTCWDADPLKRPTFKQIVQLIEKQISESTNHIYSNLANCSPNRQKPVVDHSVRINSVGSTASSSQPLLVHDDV
T7 sequence (P07333 20-972): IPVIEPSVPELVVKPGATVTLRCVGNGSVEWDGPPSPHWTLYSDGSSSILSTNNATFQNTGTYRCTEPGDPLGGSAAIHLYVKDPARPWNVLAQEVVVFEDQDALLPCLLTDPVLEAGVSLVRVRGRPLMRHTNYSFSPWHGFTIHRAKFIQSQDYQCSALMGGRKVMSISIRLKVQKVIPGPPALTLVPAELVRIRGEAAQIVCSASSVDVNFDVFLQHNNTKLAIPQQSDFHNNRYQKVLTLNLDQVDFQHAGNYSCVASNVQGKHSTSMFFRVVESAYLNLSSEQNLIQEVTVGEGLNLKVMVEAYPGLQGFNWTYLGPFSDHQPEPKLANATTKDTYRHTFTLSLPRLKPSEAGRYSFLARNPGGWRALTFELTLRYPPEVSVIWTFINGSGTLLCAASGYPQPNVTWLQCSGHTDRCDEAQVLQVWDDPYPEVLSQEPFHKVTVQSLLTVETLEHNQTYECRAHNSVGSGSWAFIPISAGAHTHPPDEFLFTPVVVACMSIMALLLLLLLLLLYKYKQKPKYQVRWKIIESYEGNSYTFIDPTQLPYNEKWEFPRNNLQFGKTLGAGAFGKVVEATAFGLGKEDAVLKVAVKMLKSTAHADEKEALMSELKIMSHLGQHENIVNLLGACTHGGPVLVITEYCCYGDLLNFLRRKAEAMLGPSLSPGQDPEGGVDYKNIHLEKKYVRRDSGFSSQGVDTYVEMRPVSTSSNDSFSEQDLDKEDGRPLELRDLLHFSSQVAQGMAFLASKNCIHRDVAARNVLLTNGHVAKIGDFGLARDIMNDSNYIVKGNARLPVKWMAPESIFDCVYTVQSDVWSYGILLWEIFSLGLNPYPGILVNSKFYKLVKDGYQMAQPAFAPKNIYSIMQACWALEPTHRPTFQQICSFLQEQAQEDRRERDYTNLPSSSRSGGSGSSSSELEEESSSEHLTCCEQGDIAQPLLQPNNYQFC
T26 sequence (Q96GD4 whole entry): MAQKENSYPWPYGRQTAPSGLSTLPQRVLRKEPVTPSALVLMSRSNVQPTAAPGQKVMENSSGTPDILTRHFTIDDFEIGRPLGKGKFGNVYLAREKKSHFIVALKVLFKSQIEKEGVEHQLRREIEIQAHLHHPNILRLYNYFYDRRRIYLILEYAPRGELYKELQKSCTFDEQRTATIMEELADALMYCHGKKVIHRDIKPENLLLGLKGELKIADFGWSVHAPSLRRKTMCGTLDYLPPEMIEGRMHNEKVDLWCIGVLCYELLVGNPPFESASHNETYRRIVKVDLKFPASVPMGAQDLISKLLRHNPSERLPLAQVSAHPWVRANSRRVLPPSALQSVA
T12 sequence (P22455 22-802): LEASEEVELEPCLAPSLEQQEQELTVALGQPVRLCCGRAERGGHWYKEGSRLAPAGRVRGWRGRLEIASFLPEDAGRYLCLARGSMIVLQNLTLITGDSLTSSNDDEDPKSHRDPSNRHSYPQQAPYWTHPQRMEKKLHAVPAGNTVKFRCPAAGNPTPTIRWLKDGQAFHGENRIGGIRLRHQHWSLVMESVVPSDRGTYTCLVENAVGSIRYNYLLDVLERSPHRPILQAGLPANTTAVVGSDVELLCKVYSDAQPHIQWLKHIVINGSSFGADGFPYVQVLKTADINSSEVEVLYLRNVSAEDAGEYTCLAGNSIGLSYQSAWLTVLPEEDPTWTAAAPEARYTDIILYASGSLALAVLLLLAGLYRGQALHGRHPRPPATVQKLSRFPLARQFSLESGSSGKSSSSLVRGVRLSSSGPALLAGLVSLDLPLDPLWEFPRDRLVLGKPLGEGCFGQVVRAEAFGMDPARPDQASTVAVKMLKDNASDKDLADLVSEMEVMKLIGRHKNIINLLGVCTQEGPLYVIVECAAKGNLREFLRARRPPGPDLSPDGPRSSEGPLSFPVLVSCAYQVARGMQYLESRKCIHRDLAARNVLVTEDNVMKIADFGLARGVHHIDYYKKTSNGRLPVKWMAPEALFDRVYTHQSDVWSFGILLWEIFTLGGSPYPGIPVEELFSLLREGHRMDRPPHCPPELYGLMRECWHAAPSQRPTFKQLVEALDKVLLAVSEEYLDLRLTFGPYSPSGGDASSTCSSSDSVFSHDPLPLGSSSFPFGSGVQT
T29 sequence (Q9H3Y6 whole entry): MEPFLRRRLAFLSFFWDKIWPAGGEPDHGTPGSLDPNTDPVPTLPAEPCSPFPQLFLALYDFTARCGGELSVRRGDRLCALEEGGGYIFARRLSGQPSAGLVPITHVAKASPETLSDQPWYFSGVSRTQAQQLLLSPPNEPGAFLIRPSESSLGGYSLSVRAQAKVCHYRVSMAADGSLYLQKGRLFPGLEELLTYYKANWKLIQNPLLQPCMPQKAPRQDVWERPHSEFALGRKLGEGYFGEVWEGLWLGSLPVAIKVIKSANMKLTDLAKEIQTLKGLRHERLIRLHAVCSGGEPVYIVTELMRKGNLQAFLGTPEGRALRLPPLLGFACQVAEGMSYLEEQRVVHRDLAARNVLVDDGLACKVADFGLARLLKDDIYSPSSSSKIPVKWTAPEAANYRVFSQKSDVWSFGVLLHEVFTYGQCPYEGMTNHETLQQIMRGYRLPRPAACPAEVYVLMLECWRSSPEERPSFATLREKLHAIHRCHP
T17 sequence (Q13164 whole entry): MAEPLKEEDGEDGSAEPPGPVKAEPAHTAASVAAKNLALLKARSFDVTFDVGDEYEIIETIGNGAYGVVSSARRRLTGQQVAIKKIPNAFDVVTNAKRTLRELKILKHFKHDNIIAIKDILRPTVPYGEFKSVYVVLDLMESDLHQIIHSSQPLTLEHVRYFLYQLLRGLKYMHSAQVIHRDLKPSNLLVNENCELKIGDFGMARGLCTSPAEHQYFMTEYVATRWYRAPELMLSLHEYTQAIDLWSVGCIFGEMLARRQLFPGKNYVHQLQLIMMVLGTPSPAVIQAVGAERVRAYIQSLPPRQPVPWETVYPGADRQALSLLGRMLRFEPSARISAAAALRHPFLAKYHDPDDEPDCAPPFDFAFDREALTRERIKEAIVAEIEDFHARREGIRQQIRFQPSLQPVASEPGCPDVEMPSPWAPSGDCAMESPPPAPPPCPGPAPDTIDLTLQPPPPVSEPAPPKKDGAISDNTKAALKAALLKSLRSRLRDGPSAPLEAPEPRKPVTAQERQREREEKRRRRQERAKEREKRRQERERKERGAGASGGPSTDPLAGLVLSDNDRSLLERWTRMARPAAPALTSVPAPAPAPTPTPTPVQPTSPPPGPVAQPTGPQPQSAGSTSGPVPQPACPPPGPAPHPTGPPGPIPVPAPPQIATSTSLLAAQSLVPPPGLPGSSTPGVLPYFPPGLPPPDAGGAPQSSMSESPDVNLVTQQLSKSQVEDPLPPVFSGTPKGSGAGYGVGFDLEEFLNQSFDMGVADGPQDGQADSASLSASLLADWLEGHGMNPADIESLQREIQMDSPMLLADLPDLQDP
T13 sequence (P31152 whole entry): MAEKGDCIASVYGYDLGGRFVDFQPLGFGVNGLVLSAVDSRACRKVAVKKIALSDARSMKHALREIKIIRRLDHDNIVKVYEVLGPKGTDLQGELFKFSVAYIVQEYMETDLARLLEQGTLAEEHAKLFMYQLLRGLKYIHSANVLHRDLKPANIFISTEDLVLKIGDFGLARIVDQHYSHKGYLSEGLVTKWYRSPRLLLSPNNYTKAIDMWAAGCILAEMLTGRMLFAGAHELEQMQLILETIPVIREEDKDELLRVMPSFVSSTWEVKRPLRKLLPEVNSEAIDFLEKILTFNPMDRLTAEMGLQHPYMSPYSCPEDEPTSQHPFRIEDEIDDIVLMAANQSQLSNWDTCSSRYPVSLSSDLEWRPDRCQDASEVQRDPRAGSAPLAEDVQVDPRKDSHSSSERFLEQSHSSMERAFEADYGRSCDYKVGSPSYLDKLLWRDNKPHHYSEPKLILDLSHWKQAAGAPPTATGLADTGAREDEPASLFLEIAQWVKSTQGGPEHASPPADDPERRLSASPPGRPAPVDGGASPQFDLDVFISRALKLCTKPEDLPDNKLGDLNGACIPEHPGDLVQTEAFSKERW

Question: What does the source list for `CN(C)C(=O)c1cc2cnc(Nc3ccc(-c4csc5c(=O)cc(N6CCOCC6)oc45)cc3)nc2n1C1CCCC1` [SRX3177]?
Answer: remaining binding at 1 µM [1]: 35%; remaining binding at 1 µM [2]: 51%; remaining binding at 1 µM [3]: 95%; remaining binding at 1 µM [4]: 49%; Percent Control [5]: 79; remaining binding at 1 µM ([5]; read-out: Percent Control): 88%; remaining binding at 1 µM [6]: 78%; remaining binding at 1 µM ([7]; CSF1R-autoinhibited): 60%; remaining binding at 1 µM ([7]; CSF1R): 100%; remaining binding at 1 µM [8]: 93%; remaining binding at 1 µM [9]: 97%; remaining binding at 1 µM ([10]; KIT-autoinhibited): 73%; remaining binding at 1 µM ([10]; KIT): 68%; remaining binding at 1 µM [11]: 100%; remaining binding at 1 µM [12]: 86%; remaining binding at 1 µM [13]: 96%; remaining binding at 1 µM [14]: 100%; remaining binding at 1 µM [15]: 77%; remaining binding at 1 µM [16]: 68%; remaining binding at 1 µM [17]: 96%; remaining binding at 1 µM [18]: 78%; remaining binding at 1 µM [19]: 87%; remaining binding at 1 µM [20]: 85%; remaining binding at 1 µM [21]: 79%; remaining binding at 1 µM [22]: 51%; remaining binding at 1 µM [23]: 100%; remaining binding at 1 µM [24]: 100%; remaining binding at 1 µM [25]: 69%; remaining binding at 1 µM [26]: 4.9%; remaining binding at 1 µM [27]: 100%; remaining binding at 1 µM [28]: 38%; remaining binding at 1 µM [29]: 92%; remaining binding at 1 µM [30]: 35%; remaining binding at 1 µM [31]: 100%; remaining binding at 1 µM [32]: 40%
